From patent US9085531B2 (priority 2004, dated 2015)
Structures can show the parent of a compound that is named as a salt.

Legend:
[1] = test system: tetrabenazine-induced exploratory loss and ptosis in mice; assay: Tetrabenazine assay; settings: mouse, in vivo

| SMILES | melting point [°C] | activity in the tetrabenazine assay [1] |
| --- | --- | --- |
| CN1Cc2cc(-c3cccnn3)ccc2C(c2cc3ccccc3s2)C1 (stereo not shown) (as salt: maleate) | 100 to 104 | – |
| COC(=O)C(c1ccccc1)C1CCCCN1.Cl (stereo not shown) [Ritalin®] | – | potent activity |
| CN1Cc2ccccc2C(C2=Cc3ccccc3CCC2)C1 (stereo not shown) (as salt: maleate) | 178 to 180 | – |
| CN1Cc2c(N)cccc2C(c2ccccc2)C1 (stereo not shown) [Nomifensine] | – | potent biological activity |
